Source: patent US8895282B2, “Use of a substance for manufacturing of a medicament for treatment of common cold” (Tanomed AB, priority 2008, dated 2014)
Several values for one entry are separate records, joined by “and”; a condition that tells them apart may be missing. Equal entries are not always repeated. Where two headings read alike, the source gives them in different places.

Key:
Rhinovirus 8 [1] = settings: for Infection of WI 38 cells after 10 days of inoculation: 10 U GO + 5% glucose added after 2 days
Rhinovirus 7 [2] = settings: for Infection of WI 38 cells after 10 days of inoculation: 10 U GO + 5% glucose added after 2 days
Rhinovirus 7 [3] = settings: for Day 3 (cytopathic effect of RV 7 on WI 38 cells) / Day 5 (cytopathic effect of RV 7 on WI 38 cells) / Day 7 (cytopathic effect of RV 7 on WI 38 cells): 20 U GO/ml; for Incubation time for inactivation of rhinovirus: glucose oxidase 20 U/ml
Procedure: Virus: Rhinovirus 7, purchased from ATCC (VR-1117), was used as a representative for the rhinovirus group. In the assays the dilutions 10^−2 and 10^−3 were used. […] 0.3 ml of each dilution was added into the vials.
Cell culture: Human lung cell fibroblasts (WI 38, ATCC-CCL-75) was used for cytopathic effect detection. 10-fold serial dilutions had been made from the concentrated viral suspension. […] Then the media was changed to RPMI with 2% of fetal calf serum, which was preserved during the assay. The cells were incubated in CO2enriched air at 37° C. During the experiments a cell culture of 17th-18^thpassage was used.
Catalase: From Sigma-Aldrich™. A solution of 100 000 U/ml was prepared from the original solution of 10^6 U/ml.
H2O2: a 20% solution was diluted in Phosphate buffered saline (PBS) to a 0.5% and a 0.05% solution. 0.1 ml was added to the vials, which means 0.05% or 0.005% in the vials.
A solution of 200 U/ml and 600 U/ml was prepared from the original solution of 6000 U/ml.
In order to evaluate whether the effect of the hydrogen peroxide was a direct effect on the virus itself or a cytoprotective effect, we preincubated the virus with the hydrogen peroxide, before it was transferred to the wells with the cells. The WI 38 cells are also sensitive to hydrogen peroxide, and therefore it was necessary to add catalase before inoculation into the wells. […] This design would also reveal if the inhibitory effect was only a virostatic one, or if it could damage the virions irreversibly.
In table 1 the content of each of the 10 vials (Eppendorf) is listed. The vials were incubated in a heater keeping a stable temperature of 37° C. 1000 U of catalase was added after 15, 30 and 60 min of incubation. 2×50 μl from each vial was transferred to duplicate cell wells (a 96-well plate).

Rhinovirus 8 [4] = tested on: Rhinovirus 8
Procedure: (§1) Virus concentration=dil 2. Incubation during 30 min in heater keeping 37° C. After 30 min the effect of the hydrogen peroxide is aborted with the addition of 0.1 ml catalase solution into the vial (=1 kU/ml). • 0.7 ml 5% glucose solution+0.1 ml dil 1 of RV7 (=a7) or RV8 (=a8)+0.1 ml of the hydrogen peroxide solution (=final concentration in the vial=[…]). Incubation and abortion of the hydrogen peroxide effect similar as in a).
(§2) Altogether 4 vials (Eppendorff): a7, a8, b7 and b8.
(§3) After the addition of catalase, samples are transferred to a 96-well plate with flat bottom according to table 3.

Rhinovirus 7 [5] = tested on: Rhinovirus 7
Procedure: as §1, §2, §3

WI 38 cells = tested on: WI 38 cells
Procedure: as §1, §3

[6] = Glucose Oxidase added into the wells 2 days after the initial incubation
[7] = RV 7 dil 10^−2, preincubation 15 min
[8] = RV 7 dil 10^−2, preincubation 30 min
[9] = RV 7 dil 10^−2, preincubation 60 min
[10] = RV 7 dil 10^−3, preincubation 15 min
[11] = RV 7 dil 10^−3, preincubation 30 min
[12] = RV 7 dil 10^−3, preincubation 60 min
[13] = 40 U/ml of Glucose Oxidase, high initial inoculate
[14] = 50 μl a8: RV8 dil 2 preincubated 30 min with 40 U/ml Glucose Oxidase, then catalase
[15] = 50 μl a7: RV7 dil 2 preincubated 30 min with 40 U/ml Glucose Oxidase, then catalase

## Glucose oxidase [GO]
Rhinovirus 8 [1]; well E2, 50 μl RV8 dilution 2
  Infection of WI 38 cells after 10 days of inoculation: 2+
Rhinovirus 8 [1]; well E4, 50 μl RV8 dilution 4
  Infection of WI 38 cells after 10 days of inoculation: 0
Rhinovirus 8 [1]; wells D9, C9, 10 μl RV8 dilution 1
  Infection of WI 38 cells after 10 days of inoculation: 2+ and 3+
Rhinovirus 8 [1]; [6]
  Spread of viral infection to other cells: could prevent the spread of viral infection
Rhinovirus 7 [2]; well E1, 50 μl RV7 dilution 2
  Infection of WI 38 cells after 10 days of inoculation: 2+
Rhinovirus 7 [2]; well E3, 50 μl RV7 dilution 4
  Infection of WI 38 cells after 10 days of inoculation: 0
Rhinovirus 7 [2]; wells F9, E9, 10 μl RV7 dilution 1
  Infection of WI 38 cells after 10 days of inoculation: 1+
Rhinovirus 7 [2]; [6]
  Spread of viral infection to other cells: could prevent the spread of viral infection
Rhinovirus 7 [3]
  GO concentration having an effect on the Rhinovirus infection: less than 20 U/ml
  Incubation time for inactivation of rhinovirus: ≤ 30 min
Rhinovirus 7 [3]; [7]
  Day 3 (cytopathic effect of RV 7 on WI 38 cells): −
  Day 5 (cytopathic effect of RV 7 on WI 38 cells): −
  Day 7 (cytopathic effect of RV 7 on WI 38 cells): −
Rhinovirus 7 [3]; [8]
  Day 3 (cytopathic effect of RV 7 on WI 38 cells): −
  Day 5 (cytopathic effect of RV 7 on WI 38 cells): −
  Day 7 (cytopathic effect of RV 7 on WI 38 cells): −
Rhinovirus 7 [3]; [9]
  Day 3 (cytopathic effect of RV 7 on WI 38 cells): −
  Day 5 (cytopathic effect of RV 7 on WI 38 cells): −
  Day 7 (cytopathic effect of RV 7 on WI 38 cells): −
Rhinovirus 7 [3]; [10]
  Day 3 (cytopathic effect of RV 7 on WI 38 cells): −
  Day 5 (cytopathic effect of RV 7 on WI 38 cells): −
  Day 7 (cytopathic effect of RV 7 on WI 38 cells): −
Rhinovirus 7 [3]; [11]
  Day 3 (cytopathic effect of RV 7 on WI 38 cells): −
  Day 5 (cytopathic effect of RV 7 on WI 38 cells): −
  Day 7 (cytopathic effect of RV 7 on WI 38 cells): −
Rhinovirus 7 [3]; [12]
  Day 3 (cytopathic effect of RV 7 on WI 38 cells): −
  Day 5 (cytopathic effect of RV 7 on WI 38 cells): −
  Day 7 (cytopathic effect of RV 7 on WI 38 cells): −
Rhinovirus 7 [3]; 20 U/ml of Glucose Oxidase
  Amount of H2O2 produced by Glucose Oxidase, equivalent: more than 0.005 % H2O2
Rhinovirus 7 [3]; GO less than 20 U/ml
  Hydrogen peroxide concentration corresponding to the effective GO concentration: more than 10 mM
Rhinovirus 7 [3]; Glucose Oxidase or 0.05% hydrogen peroxide solution, 7 days of incubation, no sign of recovery
  Reversibility of the inactivation of RV 7: irreversible
Rhinovirus 7 [3]; WI 38 cells
  Glucose Oxidase concentration sufficient for complete inactivation of RV 7: 20 U/ml
Rhinovirus 7 [3]; after 5 days of incubation, even after only 15 min preincubation and higher RV 7 concentration
  Cytopathic effect in wells where Glucose Oxidase had been incubated with RV 7: no cytopathic effect
Rhinovirus 7 [3]; listed as glucose oxidase
  Incubation time for inactivation of rhinovirus: less than 30 minutes
Rhinovirus 8 [4]; [13]
  Inactivation of RV 8: able to inactivate
Rhinovirus 8 [4]; [14]
  Infection of WI 38 cells after 2 days of inoculation: 0
  Infection of WI 38 cells after 10 days of inoculation: 0
Rhinovirus 7 [5]; [13]
  Inactivation of RV 7: able to inactivate
Rhinovirus 7 [5]; [15]
  Infection of WI 38 cells after 2 days of inoculation: 0
  Infection of WI 38 cells after 10 days of inoculation: 0

B1: Catalase: specific enzyme catalyzing the conversion of H2O2 into O2 and H2O; purified from human erythrocytes (protein, UniProt P04040 2-527, looked up)
Catalase: ADSRDPASDQMQHWKEQRAAQKADVLTTGAGNPVGDKLNVITVGPRGPLLVQDVVFTDEMAHFDRERIPERVVHAKGAGAFGYFEVTHDITKYSKAKVFEHIGKKTPIAVRFSTVAGESGSADTVRDPRGFAVKFYTEDGNWDLVGNNTPIFFIRDPILFPSFIHSQKRNPQTHLKDPDMVWDFWSLRPESLHQVSFLFSDRGIPDGHRHMNGYGSHTFKLVNANGEAVYCKFHYKTDQGIKNLSVEDAARLSQEDPDYGIRDLFNAIATGKYPSWTFYIQVMTFNQAETFPFNPFDLTKVWPHKDYPLIPVGKLVLNRNPVNYFAEVEQIAFDPSNMPPGIEASPDKMLQGRLFAYPDTHRHRLGPNYLHIPVNCPYRARVANYQRDGPMCMQDNQGGAPNYYPNSFGAPEQQPSALEHSIQYSGEVRRFNTANDDNVTQVRAFYVNVLNEEQRKRLCENIAGHLKDAQIFIQKKAVKNFTEVHPDYGSHIQALLDKYNAEKPKNAIHTFVQSGSHLAAREKANL
WI 38 cells
  Effect on WI 38 cells after 2 days: 0
  Effect on WI 38 cells after 10 days: 0
